pKi: −log10 of the molar value. Like-named read-outs stand apart in the source and are kept apart here.
Columns and labels:
[1] = ref supplement 1; cited from earlier work
CYP3A5 [2] = molecular target: T1, CYP3A5 (Homo sapiens, UniProt P20815); test: Time-dependent inhibition (TDI) assay, testosterone-6β-hydroxylation, CYP3A5*1/*3 HLM with CYP3cide; type: biochemical
Description: (§1) Testosterone-6β-hydroxylation was used to measure the activity of CYP3A4 and CYP3A5. […] With the corresponding double-reciprocal plot, the derived kinetic constants from the inactivation experiments were estimated.
(§2) Two-step incubation was performed to evaluate the TDI assay. […] After pre-incubation for 3 min at 37 °C in a shaking water bath, the enzymatic reaction was started upon adding NADPH (1 mM) with various pre-reaction time (0, 5, 10, 20, 30 min). For TDI on CYP3A5, NADPH (1 mM) was added to the incubation which contained CYP3A5*1/*3 HLM (0.5 mg/mL) and CYP3cide (1.2 μM) after being pre-warmed for 3 min. […] Next step, an aliquot (20 μL) of the primary pre-reaction mixture was transferred to 180 μL of the secondary incubation system which consisted of PBS (0.1 M), testosterone (200 μM) and NADPH (1 mM). The secondary reaction was incubated at 37 °C for 10 min and terminated by adding 400 μL ice-cold acetonitrile containing prednisolone as the internal standard (0.3150 μM for CYP3A5*3/*3 HLM incubation and 0.07875 μM for CYP3A5*1/*3 HLM incubation). […] The observed inactivation rate of the affected enzyme (kobs) was the negative slope of the linear regression. kinact and KI were calculated using Equation (1) by the double-reciprocal plot. I represents the concentration of the inhibitor. (1) kobs=kinact×I/[…]

CYP3A4 [3] = molecular target: T2, CYP3A4 (Homo sapiens, UniProt P08684); test: Reversible inhibition (RI) assay on tacrolimus metabolism, CYP3A5*3/*3 HLM
Description: (§3) The reactions were started with the addition of nicotinamide adenine dinucleotide phosphate (NADPH, 1 mM) and stopped 10 min later upon adding a double volume of ice-cold methanol. […] Reactions were terminated with the same method as the CYP3A4 group. All incubations were carried out in triplicate. […] Dixon plots were used to analyze the inhibitory type of RI assay and Ki value.

CYP3A = details: rat liver microsomes, cited from earlier work
[4] = design: method as in PMID 24195812; details: rats; oral dose of 0.024 mM/kg STA or SIA; cited from earlier work
[5] = tissue to plasma partition coefficients; details: In-house data
Text: All PBPK simulations were constructed using the population-based ADME(absorption, distribution, metabolism, and excretion) simulator (version 13.1.1, Simcyp® Ltd., Certara, Sheffield, UK).

[6] = intrinsic clearance in human liver microsomes; type: in vitro ADME; details: In-house data, read-out: CLint,HLM
[7] = ref supplement 2; cited from earlier work
CYP3A4 [8] = molecular target: T2, CYP3A4; test: Time-dependent inhibition (TDI) assay, testosterone-6β-hydroxylation, CYP3A5*3/*3 HLM; type: biochemical
Description: as §1, §2

CYP3A5 [9] = molecular target: T1, CYP3A5; test: Reversible inhibition (RI) assay on tacrolimus metabolism, CYP3A5*1/*3 HLM with CYP3cide
Description: as §3

[10] = design: method as in https://pubchem.ncbi.nlm.nih.gov/; details: ref https://pubchem.ncbi.nlm.nih.gov/; cited from earlier work
[11] = 2 μM SIA, pre-incubation 10 min
[12] = 2 μM SIA, pre-incubation 20 min
[13] = 2 μM SIA, pre-incubation 30 min
[14] = 4 μM SIA, pre-incubation 10 min
[15] = 4 μM SIA, pre-incubation 20 min
[16] = 4 μM SIA, pre-incubation 30 min
[17] = 8 μM SIA, pre-incubation 10 min
[18] = 8 μM SIA, pre-incubation 20 min
[19] = 8 μM SIA, pre-incubation 30 min
[20] = 16 μM SIA, pre-incubation 0 min
[21] = 16 μM SIA, pre-incubation 5 min
[22] = 16 μM SIA, pre-incubation 10 min
[23] = 16 μM SIA, pre-incubation 20 min
[24] = 16 μM SIA, pre-incubation 30 min

T1 sequence (P20815 whole entry): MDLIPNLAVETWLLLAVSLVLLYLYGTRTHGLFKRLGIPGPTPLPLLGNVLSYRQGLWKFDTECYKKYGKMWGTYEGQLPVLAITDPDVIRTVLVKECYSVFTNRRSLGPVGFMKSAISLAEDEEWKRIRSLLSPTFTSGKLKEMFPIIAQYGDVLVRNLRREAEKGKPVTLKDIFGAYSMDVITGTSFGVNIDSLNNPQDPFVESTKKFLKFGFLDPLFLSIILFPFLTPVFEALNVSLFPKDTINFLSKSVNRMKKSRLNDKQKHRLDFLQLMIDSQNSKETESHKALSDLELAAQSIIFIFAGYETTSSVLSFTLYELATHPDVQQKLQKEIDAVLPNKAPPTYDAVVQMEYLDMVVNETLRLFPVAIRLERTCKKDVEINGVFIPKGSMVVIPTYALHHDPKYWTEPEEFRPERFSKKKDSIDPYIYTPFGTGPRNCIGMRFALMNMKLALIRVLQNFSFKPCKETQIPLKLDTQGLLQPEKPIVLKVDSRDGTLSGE
T2 sequence (P08684 whole entry): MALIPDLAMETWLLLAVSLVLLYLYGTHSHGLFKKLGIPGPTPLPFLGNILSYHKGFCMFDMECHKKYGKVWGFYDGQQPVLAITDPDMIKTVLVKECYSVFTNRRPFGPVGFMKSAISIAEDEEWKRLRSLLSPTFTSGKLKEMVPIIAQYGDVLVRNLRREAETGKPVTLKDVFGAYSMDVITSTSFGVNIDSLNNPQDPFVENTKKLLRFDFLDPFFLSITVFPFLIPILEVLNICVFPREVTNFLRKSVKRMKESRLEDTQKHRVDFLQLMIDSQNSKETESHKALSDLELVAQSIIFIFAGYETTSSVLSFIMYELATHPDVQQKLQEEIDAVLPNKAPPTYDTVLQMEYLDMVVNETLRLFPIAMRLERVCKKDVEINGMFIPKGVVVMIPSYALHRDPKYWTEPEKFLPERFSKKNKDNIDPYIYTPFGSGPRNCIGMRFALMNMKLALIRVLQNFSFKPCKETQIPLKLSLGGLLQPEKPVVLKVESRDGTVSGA

COc1cc2c(c(OC)c1OC)-c1c(cc(OC)c(OC)c1OC)C[C@H](C)[C@H](C)C2 [SIA, schisandrin A]
Log Po:w [1]: 5.265 | TDI profile on CYP3A5 (in words) (CYP3A5 [2]): slight TDI | log of percentage of control activity, Figure 4C, Mean (CYP3A5 [2]; 2 μM SIA, pre-incubation 0 min): 4.6052 | log of percentage of control activity, Figure 4C, Mean (CYP3A5 [2]; 2 μM SIA, pre-incubation 5 min): 4.5539 | log of percentage of control activity, Figure 4C, Mean (CYP3A5 [2]; [11]): 4.5218 | log of percentage of control activity, Figure 4C, Mean (CYP3A5 [2]; [12]): 4.4427 | log of percentage of control activity, Figure 4C, Mean (CYP3A5 [2]; [13]): 4.3791 | log of percentage of control activity, Figure 4C, Mean (CYP3A5 [2]; 4 μM SIA, pre-incubation 0 min): 4.6052 | log of percentage of control activity, Figure 4C, Mean (CYP3A5 [2]; 4 μM SIA, pre-incubation 5 min): 4.4998 | log of percentage of control activity, Figure 4C, Mean (CYP3A5 [2]; [14]): 4.5031 | log of percentage of control activity, Figure 4C, Mean (CYP3A5 [2]; [15]): 4.4869 | log of percentage of control activity, Figure 4C, Mean (CYP3A5 [2]; [16]): 4.2859 | log of percentage of control activity, Figure 4C, Mean (CYP3A5 [2]; 8 μM SIA, pre-incubation 0 min): 4.6052 | log of percentage of control activity, Figure 4C, Mean (CYP3A5 [2]; 8 μM SIA, pre-incubation 5 min): 4.4632 | log of percentage of control activity, Figure 4C, Mean (CYP3A5 [2]; [17]): 4.4150 | log of percentage of control activity, Figure 4C, Mean (CYP3A5 [2]; [18]): 4.4028 | log of percentage of control activity, Figure 4C, Mean (CYP3A5 [2]; [19]): 4.2282 | log of percentage of control activity, Figure 4C, Mean (CYP3A5 [2]; [20]): 4.5539 | log of percentage of control activity, Figure 4C, Mean (CYP3A5 [2]; [21]): 4.4523 | log of percentage of control activity, Figure 4C, Mean (CYP3A5 [2]; [22]): 4.3701 | log of percentage of control activity, Figure 4C, Mean (CYP3A5 [2]; [23]): 4.2585 | log of percentage of control activity, Figure 4C, Mean (CYP3A5 [2]; [24]): 4.1607 | kinact/KI (CYP3A5 [2]; CYP3A5): 113 M⁻¹ s⁻¹ | KI (CYP3A5 [2]; CYP3A5, testosterone-6β-hydroxylation): 2.07 µM | kinact (CYP3A5 [2]; human, CYP3A5*1/*3 human liver microsomes with CYP3cide, probe testosterone (200 μM), with CYP3cide ([…]), CYP3A5, testosterone-6β-hydroxylation): 0.000233 s⁻¹ | Dixon plot data point, Figure 2C, Mean (CYP3A4 [3]; 2.4 μM SIA, 0.2 μM tacrolimus): 20.0000 | Dixon plot data point, Figure 2C, Mean (CYP3A4 [3]; 2.4 μM SIA, 0.4 μM tacrolimus): 10.0000 | Dixon plot data point, Figure 2C, Mean (CYP3A4 [3]; 2.4 μM SIA, 0.8 μM tacrolimus): 3.3452 | Dixon plot data point, Figure 2C, Mean (CYP3A4 [3]; 2.4 μM SIA, 1.6 μM tacrolimus): 1.4662 | Dixon plot data point, Figure 2C, Mean (CYP3A4 [3]; 7.2 μM SIA, 0.4 μM tacrolimus): 10.0565 | Dixon plot data point, Figure 2C, Mean (CYP3A4 [3]; 7.2 μM SIA, 1.6 μM tacrolimus): 1.7598 | Dixon plot data point, Figure 2C, Mean (CYP3A4 [3]; 12 μM SIA, 0.2 μM tacrolimus): 20.3445 | Dixon plot data point, Figure 2C, Mean (CYP3A4 [3]; 12 μM SIA, 0.4 μM tacrolimus): 9.8175 | Dixon plot data point, Figure 2C, Mean (CYP3A4 [3]; 12 μM SIA, 0.8 μM tacrolimus): 4.5304 | Dixon plot data point, Figure 2C, Mean (CYP3A4 [3]; 12 μM SIA, 1.6 μM tacrolimus): 1.6431 | reversible inhibition on CYP3A4 (in words) (CYP3A4 [3]; CYP3A5*3/*3 HLM, substrate tacrolimus): little reversible inhibition | pKi (CYP3A; midazolam 1′-hydroxylation): 5.23 | pKi (CYP3A; midazolam 4-hydroxylation): 5.32 | increase of systemic exposure of tacrolimus [4]: 2.37 fold | Kp ([5]; adipose, read-out: Kp Adipose): 36.4 | Kp ([5]; brain, read-out: Kp Brain): 7.4 | Kp ([5]; gut, read-out: Kp Gut): 210 | Kp ([5]; heart, read-out: Kp Heart): 39.5 | Kp ([5]; kidney, read-out: Kp Kidney): 5.9 | Kp ([5]; liver, read-out: Kp Liver): 3.9 | Kp ([5]; lung, read-out: Kp Lung): 19 | Kp ([5]; spleen, read-out: Kp Spleen): 7.6 | microsomal CLint [6]: 130 µL/min/mg | fu plasma [7]: 0.0334 | TDI profile on CYP3A4 (in words) (CYP3A4 [8]): slight TDI | log of percentage of control activity, Figure 4A, Mean (CYP3A4 [8]; 2 μM SIA, pre-incubation 0 min): 4.6052 | log of percentage of control activity, Figure 4A, Mean (CYP3A4 [8]; 2 μM SIA, pre-incubation 5 min): 4.5754 | log of percentage of control activity, Figure 4A, Mean (CYP3A4 [8]; [11]): 4.5165 | log of percentage of control activity, Figure 4A, Mean (CYP3A4 [8]; [12]): 4.4602 | log of percentage of control activity, Figure 4A, Mean (CYP3A4 [8]; [13]): 4.3520 | log of percentage of control activity, Figure 4A, Mean (CYP3A4 [8]; 4 μM SIA, pre-incubation 0 min): 4.6052 | log of percentage of control activity, Figure 4A, Mean (CYP3A4 [8]; 4 μM SIA, pre-incubation 5 min): 4.5505 | log of percentage of control activity, Figure 4A, Mean (CYP3A4 [8]; [14]): 4.4420 | log of percentage of control activity, Figure 4A, Mean (CYP3A4 [8]; [15]): 4.3925 | log of percentage of control activity, Figure 4A, Mean (CYP3A4 [8]; [16]): 4.2490 | log of percentage of control activity, Figure 4A, Mean (CYP3A4 [8]; 8 μM SIA, pre-incubation 0 min): 4.6029 | log of percentage of control activity, Figure 4A, Mean (CYP3A4 [8]; 8 μM SIA, pre-incubation 5 min): 4.5164 | log of percentage of control activity, Figure 4A, Mean (CYP3A4 [8]; [17]): 4.3979 | log of percentage of control activity, Figure 4A, Mean (CYP3A4 [8]; [18]): 4.2781 | log of percentage of control activity, Figure 4A, Mean (CYP3A4 [8]; [19]): 4.1876 | log of percentage of control activity, Figure 4A, Mean (CYP3A4 [8]; [20]): 4.6052 | log of percentage of control activity, Figure 4A, Mean (CYP3A4 [8]; [21]): 4.4518 | log of percentage of control activity, Figure 4A, Mean (CYP3A4 [8]; [22]): 4.3776 | log of percentage of control activity, Figure 4A, Mean (CYP3A4 [8]; [23]): 4.2397 | log of percentage of control activity, Figure 4A, Mean (CYP3A4 [8]; [24]): 4.0738 | kinact/KI (CYP3A4 [8]; CYP3A4): 125 M⁻¹ s⁻¹ | KI (CYP3A4 [8]; CYP3A4, testosterone-6β-hydroxylation): 2.54 µM | kinact (CYP3A4 [8]; human, CYP3A5*3/*3 human liver microsomes, probe testosterone (200 μM), CYP3A4, testosterone-6β-hydroxylation): 0.000317 s⁻¹ | pKi (CYP3A5 [9]): 5.06 | Dixon plot data point, Figure 2D, Mean (CYP3A5 [9]; 2.4 μM SIA, 0.2 μM tacrolimus): 32.0000 | Dixon plot data point, Figure 2D, Mean (CYP3A5 [9]; 2.4 μM SIA, 0.4 μM tacrolimus): 17.6167 | Dixon plot data point, Figure 2D, Mean (CYP3A5 [9]; 2.4 μM SIA, 0.8 μM tacrolimus): 9.2000 | Dixon plot data point, Figure 2D, Mean (CYP3A5 [9]; 2.4 μM SIA, 1.6 μM tacrolimus): 6.2790 | Dixon plot data point, Figure 2D, Mean (CYP3A5 [9]; 7.2 μM SIA, 0.4 μM tacrolimus): 21.6176 | Dixon plot data point, Figure 2D, Mean (CYP3A5 [9]; 7.2 μM SIA, 1.6 μM tacrolimus): 6.9243 | Dixon plot data point, Figure 2D, Mean (CYP3A5 [9]; 12 μM SIA, 0.2 μM tacrolimus): 60.0000 | Dixon plot data point, Figure 2D, Mean (CYP3A5 [9]; 12 μM SIA, 0.4 μM tacrolimus): 30.1990 | Dixon plot data point, Figure 2D, Mean (CYP3A5 [9]; 12 μM SIA, 0.8 μM tacrolimus): 15.0500 | Dixon plot data point, Figure 2D, Mean (CYP3A5 [9]; 12 μM SIA, 1.6 μM tacrolimus): 7.2381 | HBD [10]: 0 | PSA [10]: 55.38 Å2
